Key:
[1] = biological target: Substance P 1-7 binding site; assay: Binding affinity to SP1-7 binding site
[2] = biological target: Substance P 1-7 binding site; assay: Displacement of [3H]-SP1-7 from SP1-7 binding site by scintillation counting analysis

## NC(=O)[C@H](Cc1ccccc1)NC(=O)OCc1ccccc1
[1]
  Ki: 5.2 nM
[2]
  IC50: 6.2 nM
  Ki: 5.2 nM

## N#CNC(=O)[C@H](Cc1ccccc1)NC(=O)OCc1ccccc1
[2]
  IC50: 17 nM

## O=C(N[C@@H](Cc1ccccc1)c1nnc(-c2ccccc2)o1)OCc1ccccc1
[2]
  IC50: 9 nM

## O=C(N[C@@H](Cc1ccccc1)C(=O)NNC(=O)c1ccccc1)OCc1ccccc1
[2]
  IC50: 6.5 nM
